In one test the target is T1, Amine oxidase [flavin-containing] A (Homo sapiens, UniProt P21397).
T1 sequence (P21397 whole entry): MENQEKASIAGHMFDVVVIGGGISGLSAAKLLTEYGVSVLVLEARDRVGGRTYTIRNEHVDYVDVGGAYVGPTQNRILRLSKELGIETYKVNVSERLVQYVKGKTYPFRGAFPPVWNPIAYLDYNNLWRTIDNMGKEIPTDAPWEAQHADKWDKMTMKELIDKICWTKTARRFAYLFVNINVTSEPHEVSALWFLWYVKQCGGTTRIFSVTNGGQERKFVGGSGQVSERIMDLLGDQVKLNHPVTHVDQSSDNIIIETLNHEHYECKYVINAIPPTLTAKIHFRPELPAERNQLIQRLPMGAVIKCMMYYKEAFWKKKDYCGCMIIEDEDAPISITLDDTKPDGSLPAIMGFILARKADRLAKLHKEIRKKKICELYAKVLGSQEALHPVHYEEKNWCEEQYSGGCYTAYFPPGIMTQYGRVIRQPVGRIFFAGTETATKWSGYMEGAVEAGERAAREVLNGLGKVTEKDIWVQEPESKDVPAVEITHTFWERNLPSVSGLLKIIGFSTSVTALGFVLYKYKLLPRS
Briefly: DRUGMATRIX: Monoamine Oxidase MAO-A enzyme inhibition (substrate: Kynuramine). Also noted: species or system BTI-TN-5B1-4. As to conditions: Not Active = under 50% inhibition at 10 µM; read-out: IC50.
Sequence of Melanocortin receptor 3 (P41968 whole entry): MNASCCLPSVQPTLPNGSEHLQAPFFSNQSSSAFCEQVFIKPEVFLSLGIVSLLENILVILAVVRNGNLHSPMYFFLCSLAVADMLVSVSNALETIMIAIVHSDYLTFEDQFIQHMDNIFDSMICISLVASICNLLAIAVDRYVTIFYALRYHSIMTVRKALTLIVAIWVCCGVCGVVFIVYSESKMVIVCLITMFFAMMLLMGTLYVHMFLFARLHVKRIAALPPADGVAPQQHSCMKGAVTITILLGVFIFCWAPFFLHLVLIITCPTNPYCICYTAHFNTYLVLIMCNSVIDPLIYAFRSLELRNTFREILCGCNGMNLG
As usually defined, the IC50 is the concentration that gives 50% inhibition. `Cc1oncc1C(=O)Nc1ccc(C(F)(F)F)cc1` [LEFLUNOMIDE]: the IC50 worked out at 20.7 µM.

The same test, now with this note: bti-tn-5b1-4; Not Active = under 50% inhibition at 10 µM.
As to `Cc1noc(NS(=O)(=O)c2ccc(N)cc2)c1C` [SULFISOXAZOLE], the IC50 result was “Not Active”.
Still for that read-out and setting: the result for `Cc1cccc(N(C)C(=S)Oc2ccc3ccccc3c2)c1` [TOLNAFTATE] reads “Not Active”; that for `CC[C@@H](CO)NC(=O)[C@@H]1C=C2c3cccc4[nH]cc(c34)C[C@H]2N(C)C1` [METHYLERGONOVINE], “Not Active”; that for `CCOC(=O)N1CCC(=C2c3ccc(Cl)cc3CCc3cccnc32)CC1` [LORATADINE], “Not Active”.
In the case of `CC(C)(C)NC(=O)[C@@H]1C[C@@H]2CCCC[C@@H]2CN1C[C@@H](O)[C@H](Cc1ccccc1)NC(=O)[C@H](CC(N)=O)NC(=O)c1ccc2ccccc2n1`, the IC50 result is “Not Active”.
Still for that read-out and setting: the result for `CC(=O)[C@@]1(O)CC[C@H]2[C@@H]3C[C@H](C)C4=CC(=O)CC[C@]4(C)[C@H]3CC[C@@]21C` reads “Not Active”; that for `CC(C)N1CCN(c2ccc(OCC3COC(Cn4cncn4)(c4ccc(Cl)cc4Cl)O3)cc2)CC1` (centres undefined) [TERCONAZOLE], “Not Active”; that for `Nc1nc2nc[nH]c2c(=S)[nH]1` [THIOGUANINE], “Not Active”.
The same measure, in the same setting: the result for `COc1nc(C)nc(Cl)c1NC1=NCCN1` [MOXONIDINE] reads “Not Active”; that for `C[C@@H]1CN(c2c(F)c(N)c3c(=O)c(C(=O)O)cn(C4CC4)c3c2F)C[C@H](C)N1` [SPARFLOXACIN], “Not Active”; that for `N[C@@H](Cc1ccc(O)c(O)c1)C(=O)O` [LEVODOPA], “Not Active”.

System in the next test: not listed separately
Briefly: DRUGMATRIX: Phosphodiesterase PDE4 enzyme inhibition (substrate: [3H]cAMP + cAMP). As to conditions: u-937; Not Active = under 50% inhibition at 10 µM.
As usually defined, the Ki is a measure of affinity in units of concentration, obtained from inhibition or displacement. Regarding `Cc1noc(NS(=O)(=O)c2ccc(N)cc2)c1C` [SULFISOXAZOLE], the IC50 entry is given as “Not Active” and the Ki entry was “Not Active”.
In the case of `Cc1cccc(N(C)C(=S)Oc2ccc3ccccc3c2)c1` [TOLNAFTATE], the IC50 result is “Not Active” and the Ki result is reported as “Not Active”.
Take `Cc1oncc1C(=O)Nc1ccc(C(F)(F)F)cc1` [LEFLUNOMIDE]: the IC50 result was “Not Active” and the inhibition constant (Ki) result is listed as “Not Active”.
In the case of `CC[C@@H](CO)NC(=O)[C@@H]1C=C2c3cccc4[nH]cc(c34)C[C@H]2N(C)C1` [METHYLERGONOVINE], the IC50 entry is reported as “Not Active” and the Ki entry is on record as “Not Active”.
For the molecule `CCOC(=O)N1CCC(=C2c3ccc(Cl)cc3CCc3cccnc32)CC1` [LORATADINE], the IC50 result is recorded as “Not Active” and the Ki entry is given as “Not Active”.
With `CC(C)(C)NC(=O)[C@@H]1C[C@@H]2CCCC[C@@H]2CN1C[C@@H](O)[C@H](Cc1ccccc1)NC(=O)[C@H](CC(N)=O)NC(=O)c1ccc2ccccc2n1`, the IC50 result is “Not Active” and the Ki entry was “Not Active”.
On to `CC(=O)[C@@]1(O)CC[C@H]2[C@@H]3C[C@H](C)C4=CC(=O)CC[C@]4(C)[C@H]3CC[C@@]21C`, for which the IC50 entry is “Not Active” and the inhibition constant (Ki) entry was “Not Active”.
Turning to `CC(C)N1CCN(c2ccc(OCC3COC(Cn4cncn4)(c4ccc(Cl)cc4Cl)O3)cc2)CC1` (centres undefined) [TERCONAZOLE], the IC50 result is on record as “Not Active” and the Ki result is “Not Active”.
As to `Nc1nc2nc[nH]c2c(=S)[nH]1` [THIOGUANINE], the IC50 result was “Not Active” and the Ki entry is “Not Active”.
For the molecule `COc1nc(C)nc(Cl)c1NC1=NCCN1` [MOXONIDINE], the IC50 entry is “Not Active” and the Ki entry is “Not Active”.
Consider `C[C@@H]1CN(c2c(F)c(N)c3c(=O)c(C(=O)O)cn(C4CC4)c3c2F)C[C@H](C)N1` [SPARFLOXACIN], for which the IC50 result was “Not Active” and the inhibition constant (Ki) entry is “Not Active”.
`N[C@@H](Cc1ccc(O)c(O)c1)C(=O)O` [LEVODOPA]: the concentration for half-maximal inhibition (IC50) result is given as “Not Active” and the Ki result was “Not Active”.

For another test, the target named is T2, Muscarinic acetylcholine receptor M2 (Homo sapiens, UniProt P08172). Further: in other assays of this panel Not Active means under 50% inhibition at 10 µM.
T2 sequence (P08172 whole entry): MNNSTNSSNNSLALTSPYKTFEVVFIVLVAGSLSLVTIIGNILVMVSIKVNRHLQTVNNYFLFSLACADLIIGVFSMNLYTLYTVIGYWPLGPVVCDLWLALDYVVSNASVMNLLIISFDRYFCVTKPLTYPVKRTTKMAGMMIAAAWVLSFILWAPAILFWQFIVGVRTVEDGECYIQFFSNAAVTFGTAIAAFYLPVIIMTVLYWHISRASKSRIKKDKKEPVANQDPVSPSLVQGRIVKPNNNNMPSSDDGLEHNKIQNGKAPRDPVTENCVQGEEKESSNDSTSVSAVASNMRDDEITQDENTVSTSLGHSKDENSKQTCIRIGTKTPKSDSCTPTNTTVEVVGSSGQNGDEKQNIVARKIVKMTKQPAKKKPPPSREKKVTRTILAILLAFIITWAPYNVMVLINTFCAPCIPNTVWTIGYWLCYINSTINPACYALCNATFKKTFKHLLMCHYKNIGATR
Type of test: cell membranes, CHO-K1, Membrane. As to conditions: cho-k1.
`Cc1noc(NS(=O)(=O)c2ccc(N)cc2)c1C` [SULFISOXAZOLE]: the IC50 entry is “Not Active”.
Still for that read-out and setting: then `Cc1cccc(N(C)C(=S)Oc2ccc3ccccc3c2)c1` [TOLNAFTATE], with “Not Active”; and `Cc1oncc1C(=O)Nc1ccc(C(F)(F)F)cc1` [LEFLUNOMIDE], with “Not Active”; and `CC[C@@H](CO)NC(=O)[C@@H]1C=C2c3cccc4[nH]cc(c34)C[C@H]2N(C)C1` [METHYLERGONOVINE], with “Not Active”.
Same read-out and setting: the result for `CCOC(=O)N1CCC(=C2c3ccc(Cl)cc3CCc3cccnc32)CC1` [LORATADINE] reads “Not Active”; that for `CC(C)(C)NC(=O)[C@@H]1C[C@@H]2CCCC[C@@H]2CN1C[C@@H](O)[C@H](Cc1ccccc1)NC(=O)[C@H](CC(N)=O)NC(=O)c1ccc2ccccc2n1`, “Not Active”.
The same measure, in the same setting: the result for `CC(=O)[C@@]1(O)CC[C@H]2[C@@H]3C[C@H](C)C4=CC(=O)CC[C@]4(C)[C@H]3CC[C@@]21C` reads “Not Active”; that for `Nc1nc2nc[nH]c2c(=S)[nH]1` [THIOGUANINE], “Not Active”.
Consider `COc1nc(C)nc(Cl)c1NC1=NCCN1` [MOXONIDINE], for which the IC50 result is “Not Active”.
As to `C[C@@H]1CN(c2c(F)c(N)c3c(=O)c(C(=O)O)cn(C4CC4)c3c2F)C[C@H](C)N1` [SPARFLOXACIN], the IC50 result was “Not Active”.
Take `N[C@@H](Cc1ccc(O)c(O)c1)C(=O)O` [LEVODOPA]: the IC50 entry is “Not Active”.

The test is the same for the next values; noted with them: read-out: IC50.
With `CC(C)N1CCN(c2ccc(OCC3COC(Cn4cncn4)(c4ccc(Cl)cc4Cl)O3)cc2)CC1` (centres undefined) [TERCONAZOLE], the IC50 amounted to 12.9 µM.

The same test, now with this note: read-out: Ki.
For `CC(C)N1CCN(c2ccc(OCC3COC(Cn4cncn4)(c4ccc(Cl)cc4Cl)O3)cc2)CC1` (centres undefined) [TERCONAZOLE], the Ki turned out to be 4.59 µM.

Another test addresses Melanocortin receptor 3 (Homo sapiens, UniProt P41968). Type of test: cell membranes, HEK293, Membrane. As to conditions: hek293.
In the case of `Cc1noc(NS(=O)(=O)c2ccc(N)cc2)c1C` [SULFISOXAZOLE], the IC50 entry is listed as “Not Active”.
On the same count and under the same terms, then `Cc1cccc(N(C)C(=S)Oc2ccc3ccccc3c2)c1` [TOLNAFTATE], with “Not Active”.
Same read-out and setting: then `Cc1oncc1C(=O)Nc1ccc(C(F)(F)F)cc1` [LEFLUNOMIDE], with “Not Active”; and `CC[C@@H](CO)NC(=O)[C@@H]1C=C2c3cccc4[nH]cc(c34)C[C@H]2N(C)C1` [METHYLERGONOVINE], with “Not Active”; and `CCOC(=O)N1CCC(=C2c3ccc(Cl)cc3CCc3cccnc32)CC1` [LORATADINE], with “Not Active”.
Same read-out and setting: the result for `CC(C)(C)NC(=O)[C@@H]1C[C@@H]2CCCC[C@@H]2CN1C[C@@H](O)[C@H](Cc1ccccc1)NC(=O)[C@H](CC(N)=O)NC(=O)c1ccc2ccccc2n1` reads “Not Active”; that for `CC(=O)[C@@]1(O)CC[C@H]2[C@@H]3C[C@H](C)C4=CC(=O)CC[C@]4(C)[C@H]3CC[C@@]21C`, “Not Active”.
For `CC(C)N1CCN(c2ccc(OCC3COC(Cn4cncn4)(c4ccc(Cl)cc4Cl)O3)cc2)CC1` (centres undefined) [TERCONAZOLE], the IC50 entry is “Not Active”.
For the molecule `Nc1nc2nc[nH]c2c(=S)[nH]1` [THIOGUANINE], the IC50 result is on record as “Not Active”.
Still for that read-out and setting: then `COc1nc(C)nc(Cl)c1NC1=NCCN1` [MOXONIDINE], with “Not Active”; and `C[C@@H]1CN(c2c(F)c(N)c3c(=O)c(C(=O)O)cn(C4CC4)c3c2F)C[C@H](C)N1` [SPARFLOXACIN], with “Not Active”; and `N[C@@H](Cc1ccc(O)c(O)c1)C(=O)O` [LEVODOPA], with “Not Active”.

In another test the target is 5-hydroxytryptamine receptor 4 (Cavia porcellus, UniProt O70528). Type of test: cell membranes, Dunkin-Hartley, Striatum, Membrane. Further: in other assays of this panel Not Active means under 50% inhibition at 10 µM.
Sequence of 5-hydroxytryptamine receptor 4 (O70528 whole entry): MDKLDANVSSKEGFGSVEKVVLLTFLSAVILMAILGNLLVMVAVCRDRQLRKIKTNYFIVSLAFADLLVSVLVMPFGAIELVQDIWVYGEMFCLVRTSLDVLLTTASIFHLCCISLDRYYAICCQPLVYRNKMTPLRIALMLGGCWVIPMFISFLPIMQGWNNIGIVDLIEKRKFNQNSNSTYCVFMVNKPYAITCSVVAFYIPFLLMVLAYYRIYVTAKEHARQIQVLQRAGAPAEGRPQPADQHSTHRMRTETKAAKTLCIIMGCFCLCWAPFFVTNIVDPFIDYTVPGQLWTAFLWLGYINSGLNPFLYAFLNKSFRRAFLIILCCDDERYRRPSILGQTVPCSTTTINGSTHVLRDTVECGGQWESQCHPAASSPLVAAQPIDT
Settings: not given
In the case of `Cc1noc(NS(=O)(=O)c2ccc(N)cc2)c1C` [SULFISOXAZOLE], the IC50 entry is listed as “Not Active”.
The same measure, in the same setting: the result for `Cc1cccc(N(C)C(=S)Oc2ccc3ccccc3c2)c1` [TOLNAFTATE] reads “Not Active”.
Still for that read-out and setting: then `Cc1oncc1C(=O)Nc1ccc(C(F)(F)F)cc1` [LEFLUNOMIDE], with “Not Active”; and `CC[C@@H](CO)NC(=O)[C@@H]1C=C2c3cccc4[nH]cc(c34)C[C@H]2N(C)C1` [METHYLERGONOVINE], with “Not Active”; and `CCOC(=O)N1CCC(=C2c3ccc(Cl)cc3CCc3cccnc32)CC1` [LORATADINE], with “Not Active”.
Still for that read-out and setting: the result for `CC(C)(C)NC(=O)[C@@H]1C[C@@H]2CCCC[C@@H]2CN1C[C@@H](O)[C@H](Cc1ccccc1)NC(=O)[C@H](CC(N)=O)NC(=O)c1ccc2ccccc2n1` reads “Not Active”; that for `CC(=O)[C@@]1(O)CC[C@H]2[C@@H]3C[C@H](C)C4=CC(=O)CC[C@]4(C)[C@H]3CC[C@@]21C`, “Not Active”.
Regarding `Nc1nc2nc[nH]c2c(=S)[nH]1` [THIOGUANINE], the IC50 result is “Not Active”.
The same measure, in the same setting: the result for `COc1nc(C)nc(Cl)c1NC1=NCCN1` [MOXONIDINE] reads “Not Active”; that for `C[C@@H]1CN(c2c(F)c(N)c3c(=O)c(C(=O)O)cn(C4CC4)c3c2F)C[C@H](C)N1` [SPARFLOXACIN], “Not Active”; that for `N[C@@H](Cc1ccc(O)c(O)c1)C(=O)O` [LEVODOPA], “Not Active”.

The test is the same for the next values; noted with them: read-out: IC50.
With `CC(C)N1CCN(c2ccc(OCC3COC(Cn4cncn4)(c4ccc(Cl)cc4Cl)O3)cc2)CC1` (centres undefined) [TERCONAZOLE], the IC50 was 14.8 µM.

The same test, now with this note: read-out: Ki.
Regarding `CC(C)N1CCN(c2ccc(OCC3COC(Cn4cncn4)(c4ccc(Cl)cc4Cl)O3)cc2)CC1` (centres undefined) [TERCONAZOLE], the Ki turned out to be 2.46 µM.
